How the values were obtained:
Assay in all cases: differential UV-vis titration
TxtE [1] = molecular target: T1, TxtE (Streptomyces scabiei, UniProt C9ZDC6, H176W); format: binding
T1 sequence (C9ZDC6 1-406 H176W): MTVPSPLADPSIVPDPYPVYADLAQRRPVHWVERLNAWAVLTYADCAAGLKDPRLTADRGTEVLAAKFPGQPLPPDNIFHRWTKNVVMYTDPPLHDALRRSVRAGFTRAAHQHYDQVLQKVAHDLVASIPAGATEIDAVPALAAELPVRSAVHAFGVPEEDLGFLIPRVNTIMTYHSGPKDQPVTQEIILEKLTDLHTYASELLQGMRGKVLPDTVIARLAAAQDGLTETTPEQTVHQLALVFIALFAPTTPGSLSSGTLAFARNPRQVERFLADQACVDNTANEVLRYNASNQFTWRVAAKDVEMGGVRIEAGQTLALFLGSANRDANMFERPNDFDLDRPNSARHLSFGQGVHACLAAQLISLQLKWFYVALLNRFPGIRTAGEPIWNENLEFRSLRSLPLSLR

Virginiae_TxtE = format: binding, Streptomyces virginiae; conditions: read-out: Kd (μM)^b; 25 mM Tris pH 8
TxtE [2] = molecular target: T2, TxtE (Streptomyces scabiei, UniProt C9ZDC6, H176F); format: binding
T2 sequence (C9ZDC6 1-406 H176F): T1 sequence (C9ZDC6 1-406 H176W)

TxtE [3] = molecular target: T3, TxtE (Streptomyces scabiei, UniProt C9ZDC6, H176Y); format: binding
T3 sequence (C9ZDC6 1-406 H176Y): T1 sequence (C9ZDC6 1-406 H176W)

## N[C@@H](Cc1c[nH]c2ccccc12)C(=O)O [L-tryptophan]
TxtE [1]
  Kd: 1.3 ± 0.1 µM
Virginiae_TxtE
  Kd: 140 ± 6 µM
TxtE [2]
  Kd: 2.6 ± 0.1 µM
TxtE [3]
  Kd: 4.9 ± 0.3 µM
